Among the data in patent publication US20220363686A1 (AiCuris GmbH & Co. KG, priority 2018, published 2022) are CC50, EC50 and IC50 values, retold here.

Like-named read-outs stand apart in the source and are kept apart here.

Series [1] can be described thus: Cell viability assay (AlamarBlue). The note with it: human, HepAD38 cells.
The subject of another series is HBV. As to the kind of experiment: Determination of HBV DNA from the supernatants of HepAD38 cells (anti-HBV activity). Type of series: cell-based, hepatitis B virus. The conditions noted are these: Hepatitis B virus, HePAD38, 144 h, HBV DNA in HepAD38 supernatant, day 6, qPCR, read-out: Cell Activity. Put shortly: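 HepAD38 cells (60,000/well) seeded in tetracycline-free medium to induce HBV, treated with half-log serial compound dilutions for 6 days at 37 °C. HBV DNA purified from filtered supernatant and quantified by real-time PCR against HBV plasmid standards; EC50 from relative copy numbers by non-linear regression.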

Series [2] has as its target HBV core protein (C-terminal truncated core protein containing 149 amino acids of the N-terminal assembly domain) (UniProt P03146). In words: Biochemical capsid assembly assay (fluorescence quenching). On the set-up: rows headed: Assembly Activity; other: BODIPY-FL labelled core protein, assembly started with NaCl, read after 6 min. The conditions noted are these: read-out: Assembly Activity; BODIPY-FL labelled core protein, assembly started with NaCl, read after 6 min. Put shortly:
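N-terminal assembly domain (residues 1–149) plus C-terminal Cys150, E. coli-expressed, BODIPY-FL-maleimide labelled, used at 1.0–2.0 μM in 50 mM HEPES pH 7.5 with 0.5% DMSO. Assembly started with NaCl ([…]); fluorescence quenching (ex 477/em 525 nm) read after 6 min. 8-point compound series; EC50 by non-linear regression.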

Chain of HBV core protein (C-terminal truncated core protein containing 149 amino acids of the N-terminal assembly domain) (P03146 whole entry, the tested form may be a part): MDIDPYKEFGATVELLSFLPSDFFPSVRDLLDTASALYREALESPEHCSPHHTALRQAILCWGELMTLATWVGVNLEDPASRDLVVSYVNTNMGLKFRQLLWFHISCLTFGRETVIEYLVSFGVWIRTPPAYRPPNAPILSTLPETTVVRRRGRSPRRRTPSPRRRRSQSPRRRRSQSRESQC

By CC50 is commonly meant the concentration at which the toxic effect on the cells reaches its halfway point. As to `CN(C(=O)c1cnn2c1CN(C(=O)c1cc3c(F)ccc(F)c3[nH]1)CC2)C1(CO)CC1` [Example 82, 5-(4,7-difluoro-1H-indole-2-carbonyl)-N-[1-(hydroxymethyl)cyclopropyl]-N-methyl-4H,5H,6H,7H-pyrazolo[1,5-a]pyrazine-3-carboxamide], the CC50 at 6 days in series [1] is > 10 µM. Moreover, the EC50 in the series on HBV is < 1 µM. Also, the IC50 in series [2] is < 5 µM.

Turning to `Cc1cc(F)cc2[nH]c(C(=O)N3CCn4ncc(C(=O)N(C)C5(CO)CC5)c4C3)cc12` [Example 83, 5-(6-fluoro-4-methyl-1H-indole-2-carbonyl)-N-[1-(hydroxymethyl)cyclopropyl]-N-methyl-4H,5H,6H,7H-pyrazolo[1,5-a]pyrazine-3-carboxamide], the CC50 at 6 days in series [1] was > 10 µM. The EC50 with HBV is < 1 µM. In addition, the IC50 in series [2] was < 5 µM.

On to `CN(C(=O)c1cnn2c1CN(C(=O)c1cc3cc(F)c(Cl)cc3[nH]1)CC2)C1(CO)CC1` [Example 84, 5-(6-chloro-5-fluoro-1H-indole-2-carbonyl)-N-[1-(hydroxymethyl)cyclopropyl]-N-methyl-4H,5H,6H,7H-pyrazolo[1,5-a]pyrazine-3-carboxamide], for which, in series [1], the CC50 at 6 days is > 10 µM. For the same molecule, the EC50 in the series with HBV is < 1 µM. Also, in series [2], the IC50 is < 5 µM.

`CN(C(=O)c1cnn2c1CN(C(=O)c1cc3c(Cl)cc(F)cc3[nH]1)CC2)C1(CO)CC1` [Example 85, 5-(4-chloro-6-fluoro-1H-indole-2-carbonyl)-N-[1-(hydroxymethyl)cyclopropyl]-N-methyl-4H,5H,6H,7H-pyrazolo[1,5-a]pyrazine-3-carboxamide]: in series [1], the CC50 at 6 days was > 10 µM. Further, in the series on HBV, the EC50 was < 1 µM. Moreover, in series [2], the IC50 is < 5 µM.

Take `O=C(O)c1ccccc1C1CC(=O)N(c2cnn3c2CN(C(=O)c2cc4ccccc4[nH]2)CC3)C1` (stereo not drawn) [Example 86, 2-{1-[5-(1H-indole-2-carbonyl)-4H,5H,6H,7H-pyrazolo[1,5-a]pyrazin-3-yl]-5-oxopyrrolidin-3-yl}benzoic Acid]: the CC50 at 6 days in series [1] was > 10 µM. Also, in the series with HBV, the EC50 is 1 to 10 µM. Further, the IC50 in series [2] was < 5 µM.

For the molecule `CC(C)(C)NC(=O)c1cnn2c1CN(C(=O)c1cc3ccccc3[nH]1)CC2` [Example 87, N-tert-butyl-5-(1H-indole-2-carbonyl)-4H,5H,6H,7H-pyrazolo[1,5-a]pyrazine-3-carboxamide], in series [1], the CC50 at 6 days is > 10 µM. For the same molecule, in the series on HBV, the EC50 is < 1 µM. The IC50 in series [2] was < 5 µM.

With `O=C(O)c1cccc(F)c1C1CC(=O)N(c2cnn3c2CN(C(=O)c2cc4ccccc4[nH]2)CC3)C1` (stereo not drawn) [Example 88, 3-fluoro-2-{1-[5-(1H-indole-2-carbonyl)-4H,5H,6H,7H-pyrazolo[1,5-a]pyrazin-3-yl]-5-oxopyrrolidin-3-yl}benzoic Acid], the half-maximal cytotoxic concentration (CC50) at 6 days in series [1] is > 10 µM. In addition, in the series on HBV (printed as number instead of class symbol), the EC50 was > 10 µM. In addition, in series [2], the IC50 is < 5 µM.

For the molecule `CC(COC(F)F)NC(=O)c1cnn2c1CN(C(=O)c1cc3ccccc3[nH]1)CC2` (stereo not drawn) [Example 89, N-[1-(difluoromethoxy)propan-2-yl]-5-(1H-indole-2-carbonyl)-4H,5H,6H,7H-pyrazolo[1,5-a]pyrazine-3-carboxamide], in series [1], the CC50 at 6 days was > 10 µM. For the same molecule, the EC50 in the series with HBV is < 1 µM. Besides, the IC50 in series [2] was < 5 µM.

For the molecule `O=C(c1cc2ccccc2[nH]1)N1CCn2ncc(C(=O)N(CCOC(F)F)C3CC3)c2C1` [Example 90, N-cyclopropyl-N-[2-(difluoromethoxy)ethyl]-5-(1H-indole-2-carbonyl)-4H,5H,6H,7H-pyrazolo[1,5-a]pyrazine-3-carboxamide], in series [1], the CC50 at 6 days was > 10 µM. Moreover, the EC50 with HBV was < 1 µM. Moreover, the IC50 in series [2] is < 5 µM.

For the molecule `CN(C(=O)c1cnn2c1CN(C(=O)c1cc3ccccc3[nH]1)CC2)C1(c2ccc(CO)cc2)CC1` [Example 91, N-{1-[4-(hydroxymethyl)phenyl]cyclopropyl}-5-(1H-indole-2-carbonyl)-N-methyl-4H,5H,6H,7H-pyrazolo[1,5-a]pyrazine-3-carboxamide], the CC50 at 6 days in series [1] is > 10 µM. Moreover, the EC50 with HBV was < 1 µM. The IC50 in series [2] is < 5 µM.

Take `O=C(NC1(COC(F)F)CC1)c1cnn2c1CN(C(=O)c1cc3cc(F)c(Cl)cc3[nH]1)CC2` [Example 92, 5-(6-chloro-5-fluoro-1H-indole-2-carbonyl)-N-{1-[(difluoromethoxy)methyl]cyclopropyl}-4H,5H,6H,7H-pyrazolo[1,5-a]pyrazine-3-carboxamide]: the CC50 at 6 days in series [1] is > 10 µM. Further, the EC50 in the series on HBV is < 1 µM. Besides, the IC50 in series [2] was < 5 µM.

Turning to `CC1Cn2ncc(C(=O)NC3(COC(F)F)CC3)c2CN1C(=O)c1cc2cc(F)c(Cl)cc2[nH]1` (stereo not drawn) [Example 93, 5-(6-chloro-5-fluoro-1H-indole-2-carbonyl)-N-{1-[(difluoromethoxy)methyl]cyclopropyl}-6-methyl-4H,5H,6H,7H-pyrazolo[1,5-a]pyrazine-3-carboxamide], the half-maximal cytotoxic concentration (CC50) at 6 days in series [1] is > 10 µM. Also, the EC50 with HBV was < 1 µM. For the same molecule, in series [2], the IC50 is < 5 µM.

With `CC1Cn2ncc(C(=O)NC3(COC(F)F)CC3)c2CN1C(=O)c1cc2cc(F)c(F)cc2[nH]1` (stereo not drawn) [Example 94, 5-(5,6-difluoro-1H-indole-2-carbonyl)-N-{1-[(difluoromethoxy)methyl]cyclopropyl}-6-methyl-4H,5H,6H,7H-pyrazolo[1,5-a]pyrazine-3-carboxamide], the CC50 at 6 days in series [1] was > 10 µM. In addition, the EC50 in the series with HBV was < 1 µM. Besides, the IC50 in series [2] is < 5 µM.

Consider `CCc1cccc2[nH]c(C(=O)N3CCn4ncc(C(=O)N(C)C5(CO)CC5)c4C3)cc12` [Example 95, 5-(4-ethyl-1H-indole-2-carbonyl)-N-[1-(hydroxymethyl)cyclopropyl]-N-methyl-4H,5H,6H,7H-pyrazolo[1,5-a]pyrazine-3-carboxamide], for which the CC50 at 6 days in series [1] was > 10 µM. Further, the EC50 in the series on HBV is < 1 µM. Besides, in series [2], the IC50 is < 5 µM.

With `CN(C(=O)c1cnn2c1CN(C(=O)c1cc3c(Cl)c(F)ccc3[nH]1)CC2)C1(CO)CC1` [Example 96, 5-(4-chloro-5-fluoro-1H-indole-2-carbonyl)-N-[1-(hydroxymethyl)cyclopropyl]-N-methyl-4H,5H,6H,7H-pyrazolo[1,5-a]pyrazine-3-carboxamide], the CC50 at 6 days in series [1] is > 10 µM. Also, the EC50 with HBV was < 1 µM. For the same molecule, the IC50 in series [2] was < 5 µM.

With `O=C(NC1(COC(F)F)CC1)c1cnn2c1CN(C(=O)c1cc3ccccc3[nH]1)CC2` [Example 97, N-{1-[(difluoromethoxy)methyl]cyclopropyl}-5-(1H-indole-2-carbonyl)-4H,5H,6H,7H-pyrazolo[1,5-a]pyrazine-3-carboxamide], the half-maximal cytotoxic concentration (CC50) at 6 days in series [1] was > 10 µM. In addition, in the series with HBV, the EC50 was < 1 µM. For the same molecule, in series [2], the IC50 is < 5 µM.

Take `O=C(NC1(c2ccncc2)CC1)c1cnn2c1CN(C(=O)c1cc3ccccc3[nH]1)CC2` [Example 98, 5-(1H-indole-2-carbonyl)-N-[1-(pyridin-4-yl)cyclopropyl]-4H,5H,6H,7H-pyrazolo[1,5-a]pyrazine-3-carboxamide]: the CC50 at 6 days in series [1] was > 10 µM. The EC50 in the series on HBV is < 1 µM. Also, in series [2], the IC50 is < 5 µM.

For the molecule `CNC(=O)c1cnn2c1CN(C(=O)c1cc3ccccc3[nH]1)CC2` [Example 100, 5-(1H-indole-2-carbonyl)-N-methyl-4H,5H,6H,7H-pyrazolo[1,5-a]pyrazine-3-carboxamide], the CC50 at 6 days in series [1] is > 10 µM. The EC50 in the series with HBV is < 100 µM. The IC50 in series [2] was in the range of 5 to 10 µM.

In the case of `O=C(NC1(C(F)(F)F)CC1)c1cnn2c1CN(C(=O)c1cc3ccccc3[nH]1)CC2` [Example 101, 5-(1H-indole-2-carbonyl)-N-[1-(trifluoromethyl)cyclopropyl]-4H,5H,6H,7H-pyrazolo[1,5-a]pyrazine-3-carboxamide], the CC50 at 6 days in series [1] is > 10 µM. In addition, the EC50 in the series with HBV was < 1 µM. The IC50 in series [2] is < 5 µM.

For `Cc1cc(F)cc2[nH]c(C(=O)N3CCn4ncc(C(=O)NC5(COC(F)F)CC5)c4C3)cc12` [Example 102, N-{1-[(difluoromethoxy)methyl]cyclopropyl}-5-(6-fluoro-4-methyl-1H-indole-2-carbonyl)-4H,5H,6H,7H-pyrazolo[1,5-a]pyrazine-3-carboxamide], the CC50 at 6 days in series [1] is > 10 µM. Also, the EC50 in the series with HBV was < 1 µM. Besides, the IC50 in series [2] is < 5 µM.

Take `Cc1c(F)ccc2[nH]c(C(=O)N3CCn4ncc(C(=O)NC5(COC(F)F)CC5)c4C3)cc12` [Example 103, N-{1-[(difluoromethoxy)methyl]cyclopropyl}-5-(5-fluoro-4-methyl-1H-indole-2-carbonyl)-4H,5H,6H,7H-pyrazolo[1,5-a]pyrazine-3-carboxamide]: in series [1], the CC50 at 6 days was > 10 µM. For the same molecule, the EC50 in the series on HBV is < 1 µM. Moreover, the IC50 in series [2] is < 5 µM.

Regarding `O=C(NC1(COC(F)F)CC1)c1cnn2c1CN(C(=O)c1cc3c(F)c(F)ccc3[nH]1)CC2` [Example 104, 5-(4,5-difluoro-1H-indole-2-carbonyl)-N-{1-[(difluoromethoxy)methyl]cyclopropyl}-4H,5H,6H,7H-pyrazolo[1,5-a]pyrazine-3-carboxamide], the CC50 at 6 days in series [1] was > 10 µM. Further, the EC50 with HBV is < 1 µM. In addition, the IC50 in series [2] is < 5 µM.
